Laboratory results from PMC8623851, “The Structural Determinants for α1-Adrenergic/Serotonin Receptors Activity among Phenylpiperazine-Hydantoin Derivatives” (Molecules, 2021).
Read-outs that look alike come from different tables or passages of the source.

Experiments:
[1] = molecular target: T1, human 5-HT1A receptor (Homo sapiens, UniProt P08908); assay: Radioligand binding assay 5-HT1A (HEK-293 membranes, [3H]-8-OH-DPAT)
T1 sequence (P08908 1-422): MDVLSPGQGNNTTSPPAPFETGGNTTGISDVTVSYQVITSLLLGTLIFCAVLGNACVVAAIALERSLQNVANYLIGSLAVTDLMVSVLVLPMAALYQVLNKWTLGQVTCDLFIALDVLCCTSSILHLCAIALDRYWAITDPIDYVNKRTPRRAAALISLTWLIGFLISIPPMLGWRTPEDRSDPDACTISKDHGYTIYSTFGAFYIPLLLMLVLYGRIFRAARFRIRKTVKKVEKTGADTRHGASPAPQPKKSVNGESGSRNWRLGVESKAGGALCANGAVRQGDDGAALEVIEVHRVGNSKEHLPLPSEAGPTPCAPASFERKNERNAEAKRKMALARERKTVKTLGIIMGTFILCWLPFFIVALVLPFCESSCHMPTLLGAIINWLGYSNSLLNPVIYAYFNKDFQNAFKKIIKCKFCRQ

[2] = molecular target: α1-receptor; assay: Radioligand binding assay: affinity for α1-receptor ([3H]Prazosin, rat cortex)
Procedure: Tissue (rat cortex) was homogenized in 20 volumes of ice-cold 50 mM Tris-HCl buffer, pH 7.6, using an Ultra Turrax T25B homogenizer (IKA, Staufen, Germany). The homogenate was centrifuged at 20,000× g for 20 min. The resulting supernatant was decanted and pellet was resuspended in the same buffer and centrifuged again in the same conditions. The final pellet was resuspended in an appropriate volume of buffer (10 mg/1 mL).
The concentrations of analyzed compounds ranged from 10^−10 to 10^−5 M.
The incubation was terminated by rapid filtration over glass fiber filters FilterMate B (PerkinElmer, Waltham, MA, USA) using a 96-well FilterMate harvester (PerkinElmer, Waltham, MA, USA). Five rapid washes were performed with ice-cold 50 mM Tris-HCl buffer, pH 7.6.
The FilterMate was dried in a microwave and placed in a plastic bag (PerkinElmer, Waltham, MA, USA) and soaked in 10 mL of a liquid scintillation cocktail Ultima Gold MV (PerkinElmer, Waltham, MA, USA). After even distribution of the scintillation cocktail, the filter bag was sealed.
The radioactivity on the filter was measured by a MicroBeta TriLux 1450 scintillation counter (PerkinElmer, Waltham, MA, USA).
Radioligand binding data were analyzed using iterative curve fitting routines GraphPad Prism 3.0 (GraphPad Software, San Diego, CA, USA) using the built-in three parameter logistic model describing ligand competition binding to radioligand-labeled sites.

[3] = molecular target: human 5-HT7b receptor (Homo sapiens, UniProt P34969); assay: Radioligand binding assay 5-HT7 (HEK-293 membranes, [3H]-5-CT)
Chain of human 5-HT7b receptor (P34969 1-432): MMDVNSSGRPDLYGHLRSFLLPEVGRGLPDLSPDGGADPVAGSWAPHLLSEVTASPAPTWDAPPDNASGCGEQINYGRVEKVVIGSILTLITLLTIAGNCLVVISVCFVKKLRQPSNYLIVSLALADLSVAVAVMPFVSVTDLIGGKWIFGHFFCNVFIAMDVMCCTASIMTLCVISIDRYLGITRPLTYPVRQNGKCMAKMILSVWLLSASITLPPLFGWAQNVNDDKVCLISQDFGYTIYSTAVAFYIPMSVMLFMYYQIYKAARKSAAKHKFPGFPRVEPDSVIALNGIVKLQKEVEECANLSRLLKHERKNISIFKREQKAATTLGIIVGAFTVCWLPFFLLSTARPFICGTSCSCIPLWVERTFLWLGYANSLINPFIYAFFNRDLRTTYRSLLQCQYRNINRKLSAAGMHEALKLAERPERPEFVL

[4] = molecular target: human 5-HT6 receptor (Homo sapiens, UniProt P50406); assay: Radioligand binding assay 5-HT6 (HEK-293 membranes, [3H]-LSD)
Chain of human 5-HT6 receptor (P50406 whole entry): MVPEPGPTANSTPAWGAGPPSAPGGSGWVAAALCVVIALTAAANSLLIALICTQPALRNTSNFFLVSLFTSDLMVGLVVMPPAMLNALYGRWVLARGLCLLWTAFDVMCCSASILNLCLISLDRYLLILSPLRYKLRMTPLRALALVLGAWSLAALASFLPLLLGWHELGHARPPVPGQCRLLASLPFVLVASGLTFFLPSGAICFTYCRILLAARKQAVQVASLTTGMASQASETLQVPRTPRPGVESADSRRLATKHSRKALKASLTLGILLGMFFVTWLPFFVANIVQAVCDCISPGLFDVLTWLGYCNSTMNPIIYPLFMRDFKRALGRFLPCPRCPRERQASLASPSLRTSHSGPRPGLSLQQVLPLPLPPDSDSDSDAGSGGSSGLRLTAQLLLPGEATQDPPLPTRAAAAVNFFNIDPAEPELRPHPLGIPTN

[5] = molecular target: α1BR; parameters: method as in PMID 31330215; conditions: cited from earlier work
[6] = molecular target: 5-HT1AR; parameters: method as in PMID 31330215; conditions: cited from earlier work
[7] = molecular target: α1AR; parameters: method as in PMID 31330215; conditions: cited from earlier work
[8] = test system: behavioral models; parameters: method as in PMID 31330215; conditions: cited from earlier work
[9] = molecular target: α1DR; parameters: method as in PMID 31330215; conditions: cited from earlier work
[10] = molecular target: 5-HT2AR; parameters: method as in PMID 31330215; conditions: cited from earlier work
[11] = molecular target: T2, α1A-AR (Homo sapiens, UniProt P35348); assay: Intrinsic (functional) activity for α1A-AR; assay type: cell-based; conditions: antagonist potency; α1A-AR in rat tail artery (table title); 4–7 experimental results; read-out: IC50 ± SEM α1A-AR
T2 sequence (P35348 1-466): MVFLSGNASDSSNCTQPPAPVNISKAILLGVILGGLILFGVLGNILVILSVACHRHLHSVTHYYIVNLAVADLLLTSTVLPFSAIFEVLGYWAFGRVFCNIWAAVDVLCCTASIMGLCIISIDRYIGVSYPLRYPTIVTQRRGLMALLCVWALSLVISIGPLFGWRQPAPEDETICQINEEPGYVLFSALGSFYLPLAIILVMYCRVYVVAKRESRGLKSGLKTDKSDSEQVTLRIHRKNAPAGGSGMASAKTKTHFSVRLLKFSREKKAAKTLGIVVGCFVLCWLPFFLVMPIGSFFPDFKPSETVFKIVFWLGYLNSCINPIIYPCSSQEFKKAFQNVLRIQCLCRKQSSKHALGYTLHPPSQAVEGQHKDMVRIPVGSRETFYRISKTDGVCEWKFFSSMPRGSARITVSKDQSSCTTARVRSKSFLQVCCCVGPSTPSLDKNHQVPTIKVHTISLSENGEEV

[12] = molecular target: T3, α1B-AR (Homo sapiens, UniProt P35368); assay: Intrinsic (functional) activity for α1B-AR (Aequoscreen); assay type: cell-based; conditions: antagonist potency; α1B-AR in mouse spleen (table title); 4–7 experimental results; read-out: IC50 ± SEM α1B-AR
T3 construct: expressed in transfected cells; host or cells: recombinant Aequoscreen cell line (frozen, ready to use)
T3 sequence (P35368 1-520): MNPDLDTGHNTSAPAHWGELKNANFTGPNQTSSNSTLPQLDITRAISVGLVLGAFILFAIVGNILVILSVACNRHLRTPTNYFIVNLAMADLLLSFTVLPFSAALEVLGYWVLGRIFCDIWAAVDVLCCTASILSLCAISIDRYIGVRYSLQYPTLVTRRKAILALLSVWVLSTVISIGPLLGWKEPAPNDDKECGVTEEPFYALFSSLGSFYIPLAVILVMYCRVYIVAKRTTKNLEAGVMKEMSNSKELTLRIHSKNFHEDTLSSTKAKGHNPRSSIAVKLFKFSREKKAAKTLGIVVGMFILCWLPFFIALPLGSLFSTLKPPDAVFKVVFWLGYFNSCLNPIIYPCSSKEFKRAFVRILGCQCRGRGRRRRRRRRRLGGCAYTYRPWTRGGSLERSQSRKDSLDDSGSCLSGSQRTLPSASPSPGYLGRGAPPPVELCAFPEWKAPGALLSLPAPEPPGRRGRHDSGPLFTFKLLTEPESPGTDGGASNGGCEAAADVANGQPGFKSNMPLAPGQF

[13] = molecular target: α1-receptor; parameters: method as in PMID 31383628, PMID 29425815; conditions: previously reported arylpiperazine hydantoin derivatives; cited from earlier work

| Ki [1] | Ki [2] | Ki [3] | melting point | Ki [4] | Compound | also measured |
| --- | --- | --- | --- | --- | --- | --- |
| 172 nM | 25.8 ± 2.9 nM | 668 nM | 130 to 132 °C | 12300 nM | COc1ccccc1N1CCN(CCCN2C(=O)N/C(=C\c3cc(OC)c(OC)c(OC)c3)C2=O)CC1 [Compound 15, (Z)-3-(3-(4-(2-methoxyphenyl)piperazin-1-yl)propyl)-5-(3,4,5-trimethoxybenzylidene)imidazolidine-2,4-dione] |  |
|  |  |  |  |  | COc1ccccc1N1CCN(CCn2cnc3ccccc3c2=O)CC1 [ACH-000029] | Ki [5]: 4.6 nM; Ki [6]: 14 nM; Ki [7]: 0.07 nM; anxiolytic activity [8]: anxiolytic activity in behavioral models; Ki [9]: 1.1 nM; Ki [10]: 500 nM |
| 45.8 nM | 19.5 ± 2.6 nM | 114 nM | 180 to 183 °C | > 50000 nM | CCOc1ccccc1N1CCN(CCCN2C(=O)N/C(=C\c3ccc(OC)cc3)C2=O)CC1 [Compound 13, (Z)-3-(3-(4-(2-ethoxyphenyl)piperazin-1-yl)propyl)-5-(4-methoxybenzylidene)imidazolidine-2,4-dione] |  |
| 3530 nM | 144 ± 7.9 nM | 1040 nM | 104 to 106 °C | 11700 nM | COc1ccc(/C=C2\NC(=O)N(CC(O)CN3CCN(c4ccccc4F)CC3)C2=O)cc1 (centres unmarked) [Compound 8, (Z)-3-(3-(4-(2-fluorophenyl)piperazin-1-yl)-2-hydroxypropyl)-5-(4-methoxybenzylidene)imidazolidine-2,4-dione] |  |
| 103 nM | 20.2 ± 4.1 nM |  |  |  | CCOc1ccccc1N1CCN(CCCN2C(=O)N/C(=C\c3cccc(OC)c3)C2=O)CC1 [Compound 10, (Z)-3-(3-(4-(2-ethoxyphenyl)piperazin-1-yl)propyl)-5-(3-methoxybenzylidene)imidazolidine-2,4-dione] | IC50 [11]: 7.2 ± 1.1 nM; IC50 [12]: 9.2 ± 1.3 nM |
|  |  |  |  |  | COc1ccccc1N1CCN(CC(O)CN2C(=O)NC(C)(c3ccc(F)cc3)C2=O)CC1 (centres unmarked) [Compound 2] | Ki [13]: 230 nM |
| 313 nM | 99.1 ± 11.3 nM | 120 nM |  | 10200 nM | CCOc1ccccc1N1CCN(CC(O)CN2C(=O)N/C(=C\c3ccc(OC)cc3)C2=O)CC1 (centres unmarked) [Compound 7, (Z)-3-(3-(4-(2-ethoxyphenyl)piperazin-1-yl)-2-hydroxypropyl)-5-(4-methoxybenzylidene)imidazolidine-2,4-dione] |  |
| 128 nM | 11.9 ± 2.2 nM | 189 nM |  | 15800 nM | COc1ccc(/C=C2\NC(=O)N(CCCN3CCN(c4ccccc4OC)CC3)C2=O)cc1OC [Compound 14] | IC50 [11]: 57.6 ± 7.2 nM; IC50 [12]: 182 ± 21.4 nM |
| 557 nM | 75.9 ± 2.3 nM | 79 nM |  | 19200 nM | CCOc1ccccc1N1CCN(CC(O)CN2C(=O)N/C(=C\c3cccc(OC)c3)C2=O)CC1 (centres unmarked) [Compound 5, (Z)-3-(3-(4-(2-ethoxyphenyl)piperazin-1-yl)-2-hydroxypropyl)-5-(3-methoxybenzylidene)imidazolidine-2,4-dione] |  |
| 1870 nM | 89.5 ± 9 nM | 1250 nM | 104 to 106 °C | 2830 nM | CCOc1ccccc1N1CCN(CC(O)CN2C(=O)N/C(=C\c3cc(OC)c(OC)c(OC)c3)C2=O)CC1 (centres unmarked) [Compound 9, (Z)-3-(3-(4-(2-ethoxyphenyl)piperazin-1-yl)-2-hydroxypropyl)-5-(3,4,5-trimethoxybenzylidene)imidazolidine-2,4-dione] |  |
|  | 15.7 ± 1.5 nM |  |  |  | Cc1ccc(N(CC2=NCCN2)c2cccc(O)c2)cc1 [fentolamine, reference compound] |  |
| 530 nM | 187 ± 18.6 nM | 283 nM |  | 17600 nM | COc1cccc(/C=C2\NC(=O)N(CC(O)CN3CCN(c4ccccc4OC)CC3)C2=O)c1 (centres unmarked) [Compound 4, (Z)-3-(2-hydroxy-3-(4-(2-methoxyphenyl)piperazin-1-yl)propyl)-5-(3-methoxybenzylidene)imidazolidine-2,4-dione] |  |
| 282 nM | 145 ± 13.3 nM | 197 nM | 176 to 178 °C | 20400 nM | COc1ccc(/C=C2\NC(=O)N(CC(O)CN3CCN(c4ccccc4OC)CC3)C2=O)cc1 (centres unmarked) [Compound 6, (Z)-3-(2-hydroxy-3-(4-(2-methoxyphenyl)piperazin-1-yl)propyl)-5-(4-methoxybenzylidene)imidazolidine-2,4-dione] |  |
| 319 nM | 44.8 ± 3.3 nM | 152 nM | 144 to 146 °C | 1720 nM | COc1cccc(/C=C2\NC(=O)N(CCCN3CCN(c4ccccc4Cl)CC3)C2=O)c1 [Compound 11, (Z)-3-(3-(4-(2-chlorophenyl)piperazin-1-yl)propyl)-5-(3-methoxybenzylidene)imidazolidine-2,4-dione] |  |
| 165 nM | 14.7 ± 1.1 nM | 138 nM |  | 15200 nM | CCOc1ccccc1N1CCN(CCCN2C(=O)N/C(=C\c3cc(OC)c(OC)c(OC)c3)C2=O)CC1 [Compound 16, (Z)-3-(3-(4-(2-ethoxyphenyl)piperazin-1-yl)propyl)-5-(3,4,5-trimethoxybenzylidene)imidazolidine-2,4-dione] | IC50 [11]: 19.1 ± 3.4 nM; IC50 [12]: 0.82 ± 0.1 nM |
| 20.6 nM | 34.6 ± 4.6 nM | 101 nM |  | 22000 nM | COc1ccc(/C=C2\NC(=O)N(CCCN3CCN(c4ccccc4OC)CC3)C2=O)cc1 [Compound 12, (Z)-5-(4-methoxybenzylidene)-3-(3-(4-(2-methoxyphenyl)piperazin-1-yl)propyl)imidazolidine-2,4-dione] | IC50 [11]: 12.8 ± 2.5 nM; IC50 [12]: 8.5 ± 1.1 nM |
|  |  |  |  |  | COc1ccc(/C=C2\NC(=O)N(CC(O)CN3CCN(c4ccccc4OC)CC3)C2=O)cc1OC (centres unmarked) [Compound 1] | Ki [13]: 44.5 nM |
|  |  |  |  |  | CCOc1ccccc1OCCN[C@H](C)Cc1ccc(OC)c(S(N)(=O)=O)c1 [Tamsulosin, reference compound] | IC50 [12]: 0.13 ± 0.02 nM |
